Experimental findings from patent publication US4814340A, “1,4-diaryl alkane derivatives having insecticidal and acaricidal activity” (priority 1982, dated 1989) are described below.

Read-outs that look alike come from different tables or passages of the source.

The test system of data set [1] is common cutworm (third-instar larvae). Kind of data set: Test 1 (Effect on Common Cutworm). Type of data set: in vivo. Conditions: Spodoptera litura. On the procedure: (§1) Compounds (a) through (g) described below were tested as comparative compounds in the same manner as the compounds of the present invention. All the tests were doubly carried out. Namely, each result was expressed by an average value of two data.
The emulsifiable concentrate of the test compound, prepared according to the method described in Formulation Example 1, was diluted with water to a specified concentration. Sweet potato leaves were sufficiently immersed in the dilution. The sweet potato leaves were dried and placed in a plastic cup having a diameter of 10 cm, and 10 third-instar larvae of common cutworm were set free in each cup. 48 hours after, the numbers of killed and living larvae were counted and the mortality was calculated.

Data set [2] concerns two-spotted spider mite (adults). Kind of data set: Test 4 (Effect on Two-Spotted Spider Mite). It is filed as in vivo. Conditions: Tetranychus urticae. The protocol: as §1
A kidney bean leaf disc (20 mm in diameter) perforated with a cork borer was placed on water-impregnated absorbent cotton, and thereon 20 adults of two-spotted spider mite were set free, and the resulting set was allowed to stand around the clock. The same dilution of the emulsifiable concentrate of a test compound having a concentration of 200 ppm as used in Test 1 and Test 2, was applied by an applicator having a diameter of 20 cm and a height of 60 cm in an amount of 3 ml. 24 hours after, the number of killed adults was counted.

The test system of data set [3] is German cockroach (female adults). Briefly: Test 3 (Effect on German Cockroach). It is filed as in vivo, Blatella germanica (German cockroach). Conditions: Blattella germanica. On the procedure: as §1
One ml of an acetone solution of a test compound of a specified concentration was poured in a high Petri dish having a diameter of 9 cm and a height of 9 cm. The Petri dish was allowed to stand, and thereby the acetone was evaporated. The upper part of the inner wall of the Petri dish was treated with butter to prevent the adults of German cockroach from escaping from the Petri dish. 10 female adults of German cockroach were set free in each Petri dish. 48 hours after, the number of killed adults was counted.

In data set [4] the test system is green rice leafhopper (female adults). Kind of data set: Test 2 (Effect on Green Rice Leafhopper). It is filed as in vivo. Conditions: Nephotettix cincticeps. The protocol: as §1
Four or five seedlings of paddy rice with three leaves were bundled, and thereon the same dilution of the emulsifiable concentrate as used in Test 1 was sprayed in an amount of 3 ml. The bundle was dried and covered with a metal net cylinder, and 10 female adults of green rice leafhopper were set free in the cylinder. 48 hours after, the number of killed adults was counted.

A further data set has as its system yearling carps. Briefly: Test 5 (Fish Toxicity). Type of data set: in vivo, carp. On the procedure: as §1
A water tank having a width of 60 cm, a length of 30 cm and a height of 40 cm was filled with water, and 10 yearling carps having a body length of about 5 cm were set free in the tank and adapted to the environment in the tank. An acetone solution of a test compound was applied into water so as to become a concentration of 1 or 0.1 ppm in water by adding said acetone solution at a rate of one part by volume per 100 parts by volume of water. 48 hours after, the number of killed and living carps was counted and the effect of a test compound on carps was examined.

Setting [5] is: 1 mg/m^2, 48 hours, female adults, read-out: Mortality (%).
Where [6] appears, read: 5 mg/m^2, 48 hours, female adults, read-out: Mortality (%).
The mark [7] stands for this setting: 20 ppm, 48 hours, third-instar larvae, read-out: Mortality (%).
The mark [8] stands for this setting: 100 ppm, 48 hours, third-instar larvae, read-out: Mortality (%).
Where [9] appears, read: 20 ppm, 48 hours, female adults, read-out: Mortality (%).
[10] abbreviates: 100 ppm, 48 hours, female adults, read-out: Mortality (%).
Where [11] appears, read: 200 ppm, 24 hours, adults, read-out: Mortality (%).

In data set [1] (48 h), `COP(=O)(OC)OC=C(Cl)Cl` [(a), 0,0-dimethyl-0-(2,2-dichlorovinyl)phosphate, reference compound] registered a mortality at 20 ppm of 0% and a mortality at 100 ppm of 60%. In data set [2] (24 h), this molecule registered a mortality at 200 ppm of 33%.

For `CCOP(=S)(OCC)Oc1ccc(=O)n(-c2ccccc2)n1` [(b), 0,0-diethyl-0-(3-oxo-2-phenyl-2H-pyridazin-6-yl)-phosphorothioate, reference compound], the mortality at 1 mg/m2 in data set [3] (setting [5]) stood at 0%. Also, the mortality at 5 mg/m2 in data set [3] (setting [6]) worked out at 10%. In data set [4] (48 h), this molecule displayed a mortality at 20 ppm of 90% and a mortality at 100 ppm of 100%.

Turning to `CCOP(=S)(OCC)Oc1cc(C)nc(C(C)C)n1` [(c), Diazinon, reference compound], in data set [3] (48 h), the mortality at 1 mg/m2 amounted to 0% and the mortality at 5 mg/m2 stood at 80%. In addition, in data set [4] (48 h), the mortality at 20 ppm was 10% and the mortality at 100 ppm came to 80%.

The molecule `OC(c1ccc(Cl)cc1)(c1ccc(Cl)cc1)C(Cl)(Cl)Cl` [(e), Kelthane, reference compound] returned a mortality at 200 ppm in data set [2] (24 h) of 100%.

In the case of `Cc1ccc(C(C)(C)CCCc2cccc(Oc3ccccc3)c2)cc1` [Compound 1, 1-(3-phenoxyphenyl)-4-(4-methylphenyl)-4-methylpentane], the mortality at 20 ppm in data set [1] (setting [7]) is 100%. Also, the mortality at 100 ppm in data set [1] (setting [8]) stood at 100%. For the same molecule, the mortality at 1 mg/m2 in data set [3] (setting [5]) was determined as 80%. Moreover, the mortality at 5 mg/m2 in data set [3] (setting [6]) is 100%. Also, the “Mortality(%) 48 Hours After” value in the data set on yearling carps (0.1 ppm in water) and in the data set on yearling carps (1 ppm in water) was 0% throughout.

For `CC(C)(CCCc1cccc(Oc2ccccc2)c1)c1ccc2c(c1)OCO2` [Compound 4, 1-(3-phenoxyphenyl)-4-(3,4-methylenedioxyphenyl)-4-methylpentane], the mortality at 20 ppm in data set [1] (setting [7]) was 100%. Besides, the mortality at 100 ppm in data set [1] (setting [8]) worked out at 100%. Moreover, in data set [3] (setting [5]), the mortality at 1 mg/m2 worked out at 40%. Further, in data set [3] (setting [6]), the mortality at 5 mg/m2 turned out to be 100%. The “Mortality(%) 48 Hours After” value in the data set on yearling carps (0.1 ppm in water) and in the data set on yearling carps (1 ppm in water) was 0% each time.

Turning to `COc1ccc(C(C)(C)CCCc2ccc(F)c(Oc3ccccc3)c2)cc1` [Compound 6, 1-(3-phenoxy-4-fluorophenyl)-4-(4-methoxyphenyl)-4-methylpentane], the mortality at 20 ppm in data set [1] (setting [7]) and in data set [4] (setting [9]) was 100% throughout. The mortality at 100 ppm in data set [1] (setting [8]) and in data set [4] (setting [10]) was 100% each time. In addition, in data set [3] (setting [5]), the mortality at 1 mg/m2 came out at 100%. Further, the mortality at 5 mg/m2 in data set [3] (setting [6]) is 100%. Besides, the “Mortality(%) 48 Hours After” value with yearling carps (0.1 ppm in water) and in the data set on yearling carps (1 ppm in water) was 0% in each case.

On to `CC(C)(CCCc1cccc(Oc2ccccc2)c1)c1ccc(Cl)cc1` [Compound 8, 1-(3-phenoxyphenyl)-4-(4-chlorophenyl)-4-methylpentane], for which the mortality at 20 ppm in data set [1] (setting [7]) is 95%; in data set [4] (setting [9]), 100%. The mortality at 100 ppm in data set [1] (setting [8]) and in data set [4] (setting [10]) was 100% each time. Also, the “Mortality(%) 48 Hours After” value with yearling carps (0.1 ppm in water) and in the data set on yearling carps (1 ppm in water) was 0% in each case.

On to `CC(C)(CCCc1ccc(F)c(Oc2ccccc2)c1)c1ccc(OC(F)F)cc1` [Compound 10, 1-(3-phenoxy-4-fluorophenyl)-4-(4-difluoromethoxyphenyl)-4-methylpentane], for which the mortality at 20 ppm in data set [1] (setting [7]) and in data set [4] (setting [9]) was 100% throughout. The mortality at 100 ppm in data set [1] (setting [8]) and in data set [4] (setting [10]) was 100% in each case. Moreover, in data set [3] (setting [5]), the mortality at 1 mg/m2 was found to be 100%. Further, in data set [3] (setting [6]), the mortality at 5 mg/m2 worked out at 100%. In addition, the “Mortality(%) 48 Hours After” value is 5% in the data set on yearling carps (0.1 ppm in water) and 30% in the data set on yearling carps (1 ppm in water).

As to `CC(C)(CCCc1cccc(Oc2ccccc2)c1)c1ccccc1` [Compound 17], the mortality at 20 ppm amounted to 50% in data set [1] (setting [7]) and 95% in data set [4] (setting [9]). Moreover, the mortality at 100 ppm in data set [1] (setting [8]) and in data set [4] (setting [10]) was 100% each time. Further, the “Mortality(%) 48 Hours After” value in the data set with yearling carps (0.1 ppm in water) and in the data set with yearling carps (1 ppm in water) was 0% in each case.

As to `CC(C)(CCCc1ccc(F)c(Oc2ccccc2)c1)c1ccccc1` [Compound 27], the mortality at 20 ppm in data set [1] (setting [7]) and in data set [4] (setting [9]) was 100% in each case. Also, the mortality at 100 ppm in data set [1] (setting [8]) and in data set [4] (setting [10]) was 100% in each case. In data set [3] (48 h), this molecule returned a mortality at 1 mg/m2 of 100%. In data set [3] (48 h), this molecule displayed a mortality at 5 mg/m2 of 100%.

On to `Cc1ccc(C(C)(C)CCCc2ccc(F)c(Oc3ccccc3)c2)cc1` [Compound 29], for which the mortality at 20 ppm in data set [1] (setting [7]) came to 100%. Moreover, in data set [1] (setting [8]), the mortality at 100 ppm is 100%. Besides, the mortality at 1 mg/m2 in data set [3] (setting [5]) was 100%. For the same molecule, the mortality at 5 mg/m2 in data set [3] (setting [6]) is 100%.

Turning to `CCOc1ccc(C2(CCCc3cccc(Oc4ccccc4)c3)CCC2)cc1` [Compound 31, 1-(3-Phenoxyphenyl)-3-[1-(4-ethoxyphenyl)cyclobutyl]propane], the mortality at 1 mg/m2 in data set [3] (setting [5]) amounted to 100%. In addition, in data set [3] (setting [6]), the mortality at 5 mg/m2 turned out to be 100%. For the same molecule, the mortality at 20 ppm in data set [4] (setting [9]) is 100%. Besides, the mortality at 100 ppm in data set [4] (setting [10]) was found to be 100%.

Consider `CCOc1ccc(C2(CCCc3ccc(F)c(Oc4ccccc4)c3)CCC2)cc1` [Compound 38, 1-(3-Phenoxy-4-fluorophenyl)-3-[1-(4-ethoxyphenyl)cyclobutyl]propane], for which, in data set [4] (setting [9]), the mortality at 20 ppm turned out to be 100%. Also, the mortality at 100 ppm in data set [4] (setting [10]) was found to be 100%. Moreover, the “Mortality(%) 48 Hours After” value in the data set on yearling carps (0.1 ppm in water) and with yearling carps (1 ppm in water) was 0% throughout.

Take `CCOc1ccc(C(C)(C)CCCc2cccc(Oc3ccc(F)cc3)n2)cc1` [Compound 40]: in data set [2] (setting [11]), the mortality at 200 ppm was determined as 70%. The mortality at 20 ppm in data set [4] (setting [9]) was determined as 60%. Besides, the mortality at 100 ppm in data set [4] (setting [10]) was determined as 100%.

On to `CCOc1ccc(C(C)(C)CCCc2cccc(Oc3ccc(F)cc3)c2)cc1` [Compound 41], for which the mortality at 20 ppm in data set [4] (setting [9]) was determined as 100%. Moreover, the mortality at 100 ppm in data set [4] (setting [10]) amounted to 100%. Moreover, the “Mortality(%) 48 Hours After” value with yearling carps (0.1 ppm in water) and in the data set with yearling carps (1 ppm in water) was 0% throughout.

Regarding `CC(C)(CCCc1cccc(Oc2ccccn2)c1)c1ccc(Cl)cc1` [Compound 43], in data set [2] (setting [11]), the mortality at 200 ppm came out at 60%. Also, in data set [4] (setting [9]), the mortality at 20 ppm stood at 75%. Further, the mortality at 100 ppm in data set [4] (setting [10]) stood at 100%.

As for `CCOc1ccc(C(C)(C)CCCc2ccc(F)c(Oc3ccc(F)cc3)c2)cc1` [Compound 55], the mortality at 20 ppm in data set [1] (setting [7]) and in data set [4] (setting [9]) was 100% in each case. Besides, the mortality at 100 ppm in data set [1] (setting [8]) and in data set [4] (setting [10]) was 100% throughout. This molecule yielded a mortality at 1 mg/m2 in data set [3] (48 h) of 100%. Moreover, the mortality at 5 mg/m2 in data set [3] (48 h) was found to be 100%. In addition, the “Mortality(%) 48 Hours After” value in the data set with yearling carps (0.1 ppm in water) and in the data set with yearling carps (1 ppm in water) was 0% throughout.

With `COCc1ccc(C(C)(C)CCCc2cccc(Oc3ccccc3)c2)cc1` [Compound 61], the mortality at 200 ppm in data set [2] (setting [11]) came to 93%. Also, in data set [4] (setting [9]), the mortality at 20 ppm amounted to 100%. Also, in data set [4] (setting [10]), the mortality at 100 ppm is 100%.

As to `CC(C)(CCCc1cccc(Oc2ccccc2)c1)c1ccc(OC(F)(F)C(F)F)cc1` [Compound 65], the mortality at 20 ppm in data set [1] (setting [7]) and in data set [4] (setting [9]) was 100% throughout. For the same molecule, the mortality at 100 ppm in data set [1] (setting [8]) and in data set [4] (setting [10]) was 100% in each case. In addition, in data set [3] (setting [5]), the mortality at 1 mg/m2 is 30%. In data set [3] (setting [6]), the mortality at 5 mg/m2 was found to be 95%.

As for `CCOc1ccc(C(C)(C)CCCc2ccc(F)c(Oc3ccc(F)cc3)c2)cc1Cl` [Compound 67], the mortality at 20 ppm in data set [1] (setting [7]) is 60%; in data set [4] (setting [9]), 100%. Also, the mortality at 100 ppm in data set [1] (setting [8]) and in data set [4] (setting [10]) was 100% each time. Moreover, the “Mortality(%) 48 Hours After” value in the data set with yearling carps (0.1 ppm in water) and in the data set on yearling carps (1 ppm in water) was 0% in each case.

One may read the mortality as the percentage killed.
